For two molecules, Ki results are on record in patent EP0363353B1, “FUSED BENZAZEPINES” (SCHERING CORPORATION, priority 1987, dated 1989).

One test addresses T1, dopamine D-1 receptor (Rattus norvegicus, UniProt P18901).
T1 construct: Striatal tissue was excised, pooled, and homogenized; from tissue; host or cells: rat striatum (Sprague-Dawley), washed membrane pellet
Put plainly: Competitive inhibition assay, displacement of 3H-SCH 23390. The format is binding. The source says:
(§1) A methodology for characterization of D-1 and D-2 receptor binding and an interpretation of the data are described by Billard et al., Life Sciences 35, 1885 (1984) in which the binding of the benzazepine (R)-(+)-8-chioro-2,3,4,5-tetrahydro-3-methyi-5-phenyi-1H-3-benzazepin-7-oi hemimaleate (SCH 23390) to the dopamine D-1 receptor is characterized. A selectivity for D-1 receptor binding as compared to D-2 receptor binding is believed to confer the therapeutic advantage of avoiding troublesome and potentially irreversible neurological side effects associated with D-2 receptor occupancy. […]
(§2) Polypropylene incubation tubes received 100 µl of the individual test compounds at various concentrations dissolved or suspended in 0.05 M Tris, pH 7.4 containing 4 mg/ml methylcellulose, 100 µl of a solution of^3H-SCH 23390 in Tris buffer (final reaction mixture concentration =0.3 nM) or 100 µl of a solution of ^3H-spiperone in Tris buffer (final concentration = 0.2 nM) and 800 µl of tissue suspension (ca. 3 mg/assay). […] The filters were-transferred to scintillation vials, equilibated with 10 ml of scintillant (Scintosol, Isolab, Inc.) for 16 hours at 25°C and the radioactivity determined in a liquid scintillation counter. […]
For orientation: Loss of bound radioactivity is the signal in a displacement assay; it reports binding, not function.

A further test concerns the target T2, D-2 receptor (Rattus norvegicus, UniProt P61169).
T2 construct: Striatal tissue was excised, pooled, and homogenized; from tissue; host or cells: rat striatum (Sprague-Dawley), washed membrane pellet
The experiment in a line: Competitive inhibition assay, displacement of 3H-spiperone. The format is binding. The conditions noted are these: 3H-spiperone 0.2 nM; rat striatal tissue homogenate; 37°C for 15 minutes.
Excerpt: as §1, §2

T2 sequence (P61169 whole entry): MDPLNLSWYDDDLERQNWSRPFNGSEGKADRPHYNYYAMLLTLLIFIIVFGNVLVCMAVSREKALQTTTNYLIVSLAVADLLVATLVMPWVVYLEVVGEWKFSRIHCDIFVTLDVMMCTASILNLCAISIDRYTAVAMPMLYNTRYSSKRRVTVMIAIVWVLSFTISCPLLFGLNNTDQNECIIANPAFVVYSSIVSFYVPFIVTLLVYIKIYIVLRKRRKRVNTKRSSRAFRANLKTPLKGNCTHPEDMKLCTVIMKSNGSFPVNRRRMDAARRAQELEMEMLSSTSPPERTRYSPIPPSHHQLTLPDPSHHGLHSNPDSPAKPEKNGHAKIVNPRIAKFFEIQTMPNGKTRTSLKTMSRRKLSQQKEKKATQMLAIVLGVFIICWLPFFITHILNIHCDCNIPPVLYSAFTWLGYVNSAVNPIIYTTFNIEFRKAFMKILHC
T1 sequence (P18901 whole entry): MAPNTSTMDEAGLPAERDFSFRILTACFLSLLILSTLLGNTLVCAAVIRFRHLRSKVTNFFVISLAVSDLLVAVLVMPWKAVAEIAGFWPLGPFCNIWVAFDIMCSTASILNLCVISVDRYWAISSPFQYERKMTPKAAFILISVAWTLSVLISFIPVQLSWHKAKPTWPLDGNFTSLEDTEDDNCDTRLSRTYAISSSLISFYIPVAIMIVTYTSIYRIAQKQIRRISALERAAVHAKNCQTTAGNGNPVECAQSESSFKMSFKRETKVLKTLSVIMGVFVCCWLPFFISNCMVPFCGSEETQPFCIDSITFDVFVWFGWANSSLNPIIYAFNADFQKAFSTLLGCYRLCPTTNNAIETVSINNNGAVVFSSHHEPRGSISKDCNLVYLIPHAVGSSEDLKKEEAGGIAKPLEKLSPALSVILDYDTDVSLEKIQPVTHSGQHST

The Ki is a dissociation constant, usually derived from enzyme kinetics or from competition with a known ligand. Consider `Oc1cc2c(cc1Cl)CCN[C@H]1Cc3ccccc3[C@H]21` (racemic), for which the Ki on dopamine D-1 receptor turned out to be 7 nM; at D-2 receptor it was 1580 nM.
As to `CN1CCc2cc(Cl)c(O)cc2[C@H]2c3ccccc3C[C@@H]21` (racemic) [Trans-6-methyl-5,6,7,7a,8,12b-hexahydro-2-hydroxy-3-chloro-benz[d]indeno-[2,1-b]azepine], the Ki at dopamine D-1 receptor amounted to 7 nM; on D-2 receptor it was 12000 nM.
